Measured values reported in patent US20030143645A1, “Quinone reductase 2 and aldehyde dehydrogenase as therapeutic targets” (priority 2001, published 2003).

Columns and labels:
QR2 [1] = target: T1, QR2 (Homo sapiens, UniProt P16083); test: hQR2 activity assay, enzyme purified from human RBC (Example 1); type: biochemical; parameters: Pure hALDH was eluted with 5 mM NADH and pure hQR2 with 5 mM NMeN; tissue Valley Biomedical (blood); host or cells: human red blood cells; settings: purified hQR2 from human RBC; menadione substrate; read-out: Kd(app)
T1 sequence (P16083 1-231): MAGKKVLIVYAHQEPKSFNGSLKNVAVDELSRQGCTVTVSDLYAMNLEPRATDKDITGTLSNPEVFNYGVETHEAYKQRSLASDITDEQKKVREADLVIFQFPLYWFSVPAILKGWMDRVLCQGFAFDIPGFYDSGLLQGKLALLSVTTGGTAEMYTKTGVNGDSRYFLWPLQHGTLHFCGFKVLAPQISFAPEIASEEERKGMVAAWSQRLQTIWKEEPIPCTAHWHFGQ
Protocol: ATP-affinity array chromatography. In whole mouse experiments, the animal (except for its tail, feet, skin and intestines) was frozen in liquid N2 and blended in buffer A containing 50 mM Hepes, pH 7.5, 50 mM NaCl, 10 mM MgCl2, 0.1% NONIDET- P40, 1 mM dithiothreitol, 1 μg/ml leupeptin, 100 μg/ml pefabloc and 10 μg/ml aprotinin. Mouse lysate was clarified by centrifugation for 1 hr at 100,000×g. For infected and non-infected RBC's˜1.5×10^9 cells were mixed with an equal volume of 2×buffer A, rocked for 30 min at 4° C., and clarified by centrifugation for 1 hr at 100,000×g. Supernatants were dialyzed overnight against 50 mM Hepes, pH 7.5, 50 mM NaCl, 10 mM MgCl2 and 1 mM dithiothreitol. […] Lysates were centrifuged twice at 125,000×g for 1 hr at 4° C. […] Pure hALDH was eluted with 5 mM NADH and pure hQR2 with 5 mM NMeN. The eluants were dialyzed overnight at 4° C. against 25 mM Tris pH 8.0 and 1 mM DTT. hALDHl was assayed as described in Table 2. Purified hQR2 was assayed at 22° C. in 100 μM N-methyldihydronicotinamide, 30 μM menadione, 0.1% Triton X-100, 50 mM Tris pH 8.5, 100 μM dicoumarol (unless stated otherwise).
For QR2 Kd apparent values determined using the expression [formula]
The Kd was determined as [formula]
Where Ao=rate in the absence of drug; Aapp=rate+drug; [M]=concentration of menadione.

QR2 [2] = target: T1, QR2; test: QR2 activity assay with recombinant QR2 (Example 2); type: biochemical; parameters: GST (N, cleaved yes); made in house; E. coli only by inference; settings: recombinant QR2; 50 μM NMeH, 5-30 μM menadione; read-out: QR2 K1 (μM) ± SEM
Protocol: Cloning of human QR2. Human QR2 was PCR amplified from human liver cDNA (Clontech) with the following primers: 5′[…]-3′ and 5′-[…]-3′ and cloned into the pGEX-4T-2 GST expression vector (Pharmacia). GST-tagged QR2 was purified and the GST tag removed according to the manufacturers instructions.
ALDH1, QR2 and QR1 activity assays. […] Reaction products were separated with a gradient of acetonitrile in 10 mM triethylamine acetic acid. […] QR1 IC50 values were calculated using GraphPad Prism.

- Kd (QR2 [1]): 24 µM
- Ki (QR2 [2]): 0.61 ± 0.1 µM
SMILES: CCN(CC)CCCC(C)Nc1ccnc2cc(Cl)ccc12 (centres unmarked) [CQ, chloroquine]
